According to US11247965B2 (VenatoRx Pharmaceuticals, Inc., priority 2017, dated 2022):

Legend:
[1] = test system: HBV replication in HepAD38 cells; experiment: Anti-HBV activity in HepAD38 cells, extracellular HBV DNA by QPCR; type: cell-based, HBV (genotype D, serotype ayw); conditions: Hepatitis B virus, HePAD38, 168 h, read-out: Anti-HBV EC50, HepAD38 cells, extracellular HBV DNA by QPCR, 7 days of incubation
How it was run: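 Seven-day compound exposure (30 μM down to 10 nM, half-log steps) after tetracycline withdrawal induced HBV replication in HepAD38 cells. Extracellular viral DNA measured by QPCR (copies/mL via standard curve), normalised to DMSO wells; EC50 from 4-parameter non-linear regression.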

[2] = In vitro cytotoxicity, MTT cell viability assay in HepG2 cells; type: cell-based; conditions: human, Cytotoxicity CC50
How it was run: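 CC50 values reflect loss of HepG2 viability after a 7-day exposure at 37 °C, 5% CO2. After 3-4 h with MTT, solubilized formazan was quantified at 492 nm relative to vehicle wells.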

SMILES	EC50 [1]	CC50 at 7 days [2]
Cc1cc(NC(=O)c2ccc(F)c(C(F)(F)C(=O)N3CCC(F)(F)C3)c2)ccc1F [Example 73, 3-(2-(3,3-difluoropyrrolidin-1-yl)-1,1-difluoro-2-oxoethyl)-4-fluoro-N-(4-fluoro-3-methylphenyl)benzamide]	5 to 30 µM	5 to 30 µM
O=C(Nc1ccc(F)c(F)c1)c1ccc(F)c(C(F)(F)C(=O)NCC2COCCO2)c1 (centres unmarked) [Example 6, 3-(2-(((1,4-dioxan-2-yl)methyl)amino)-1,1-difluoro-2-oxoethyl)-N-(3,4-difluorophenyl)-4-fluorobenzamide]	5 to 30 µM	5 to 30 µM
CC(C)(CO)NC(=O)C(F)c1cc(C(=O)Nc2ccc(F)c(F)c2)ccc1F (centres unmarked) [Example 31, N-(3,4-difluorophenyl)-4-fluoro-3-(1-fluoro-2-((1-hydroxy-2-methylpropan-2-yl)amino)-2-oxoethyl)benzamide]	5 to 30 µM	5 to 30 µM
Cc1cc(NC(=O)c2ccc(F)c(C(F)(F)C(=O)N3[C@@H]4CCC[C@H]3CC(=O)C4)c2)ccc1F [Example 200, 3-(1,1-difluoro-2-oxo-2-((1R,5S)-3-oxo-9-azabicyclo[3.3.1]nonan-9-yl)ethyl)-4-fluoro-N-(4-fluoro-3-methylphenyl)benzamide]	< 5 µM	5 to 30 µM
CC(C)n1cc(NC(=O)c2ccc(F)c(C(F)(F)C(=O)N3[C@@H]4CC[C@H]3C[C@@H](O)C4)c2)cn1 [Example 184, 3-(1,1-difluoro-2-((1R,3r,5S)-3-hydroxy-8-azabicyclo[3.2.1]octan-8-yl)-2-oxoethyl)-4-fluoro-N-(1-isopropyl-1H-pyrazol-4-yl)benzamide]	5 to 30 µM	> 30 µM
Cc1cc(NC(=O)c2ccc(F)c(C(F)(F)C(=O)N3[C@@H]4CCC[C@H]3C[C@@H](O)C4)c2)ccc1F [Example 216, 3-(1,1-difluoro-2-((1R,3r,5S)-3-hydroxy-9-azabicyclo[3.3.1]nonan-9-yl)-2-oxoethyl)-4-fluoro-N-(4-fluoro-3-methylphenyl)benzamide]	< 5 µM	5 to 30 µM
Cc1cc(NC(=O)c2ccc(F)c(C(F)(F)C(=O)N3CC4COCC(C3)C4O)c2)ccc1F (centres unmarked) [Example 310, 3-(1,1-difluoro-2-(9-hydroxy-3-oxa-7-azabicyclo[3.3.1]nonan-7-yl)-2-oxoethyl)-4-fluoro-N-(4-fluoro-3-methylphenyl)benzamide]	< 5 µM	> 30 µM
Cc1cc(NC(=O)c2ccc(F)c(C(F)(F)C(=O)NC3(C#N)CC3)c2)ccc1F [Example 236, 3-(2-((1-cyanocyclopropyl)amino)-1,1-difluoro-2-oxoethyl)-4-fluoro-N-(4-fluoro-3-methylphenyl)benzamide]	5 to 30 µM	> 30 µM
Cn1ccc(C(=O)Nc2ccc(F)c(Cl)c2)c1C(F)(F)C(=O)NC(C)(C)C [Example 137, 2-(2-(tert-butylamino)-1,1-difluoro-2-oxoethyl)-N-(3-chloro-4-fluorophenyl)-1-methyl-1H-pyrrole-3-carboxamide]	< 5 µM	> 30 µM
Cc1cc(NC(=O)c2ccc(F)c(C(F)(F)C(=O)NC34CC5CC(CC(O)(C5)C3)C4)c2)ccc1F [Example 272, 3-(1,1-difluoro-2-(((1r,3s,5R,7S)-3-hydroxyadamantan-1-yl)amino)-2-oxoethyl)-4-fluoro-N-(4-fluoro-3-methylphenyl)benzamide]	5 to 30 µM	5 to 30 µM
Cc1cc(NC(=O)c2ccc(F)c(C(F)(F)C(=O)N3[C@@H]4CC[C@H]3CC(O)(CN)C4)c2)ccc1F (stereo partly drawn) [Example 276, 3-(2-((1R,5S)-3-(aminomethyl)-3-hydroxy-8-azabicyclo[3.2.1]octan-8-yl)-1,1-difluoro-2-oxoethyl)-4-fluoro-N-(4-fluoro-3-methylphenyl)benzamide]	< 5 µM	5 to 30 µM
Cc1cc(NC(=O)c2ccc(Br)c(C(F)(F)C(=O)N3CCC(O)CC3)c2)ccc1F [Example 62, 4-bromo-3-(1,1-difluoro-2-(4-hydroxypiperidin-1-yl)-2-oxoethyl)-N-(4-fluoro-3-methylphenyl)benzamide]	< 5 µM	> 30 µM
Cc1cc(NC(=O)c2ccc(F)c(C(F)(F)C(=O)N3CC(F)(F)CC3C(=O)O)c2)ccc1F (centres unmarked) [Example 161, 1-(2,2-difluoro-2-(2-fluoro-5-((4-fluoro-3-methylphenyl)carbamoyl)phenyl)acetyl)-4,4-difluoropyrrolidine-2-carboxylic acid]	5 to 30 µM	> 30 µM
Cc1cc(NC(=O)c2ccc([C@@H](O)CO)c(C(F)(F)C(=O)NC(C)(C)C)c2)ccc1F [Example 117, (R)-3-(2-(tert-butylamino)-1,1-difluoro-2-oxoethyl)-4-(1,2-dihydroxyethyl)-N-(4-fluoro-3-methylphenyl)benzamide]	> 30 µM	> 30 µM
Cc1cc(NC(=O)c2ccc(F)c(C(F)(F)C(=O)N3CCC(O)C(C)(C)C3)c2)ccc1F (centres unmarked) [Example 72]	< 5 µM	5 to 30 µM
Cc1cc(NC(=O)c2cc(C(F)(F)C(=O)N3[C@@H]4CC[C@H]3C[C@H](O)C4)ccc2F)ccc1F [Example 220, 5-(1,1-difluoro-2-((1R,3s,5S)-3-hydroxy-8-azabicyclo[3.2.1]octan-8-yl)-2-oxoethyl)-2-fluoro-N-(4-fluoro-3-methylphenyl)benzamide]	< 5 µM	5 to 30 µM
CCN(CCO)C(=O)C(F)(F)c1cc(C(=O)Nc2ccc(F)c(F)c2)ccc1F [Example 55, N-(3,4-difluorophenyl)-3-(2-(ethyl(2-hydroxyethyl)amino)-1,1-difluoro-2-oxoethyl)-4-fluorobenzamide]	5 to 30 µM	> 30 µM
CC[C@@H](C)NC(=O)C(F)(F)c1cc(C(=O)Nc2ccc(F)c(C)c2)cn1C [Example 109, (R)-5-(2-(sec-butylamino)-1,1-difluoro-2-oxoethyl)-N-(4-fluoro-3-methylphenyl)-1-methyl-1H-pyrrole-3-carboxamide]	< 5 µM	> 30 µM
O=C(Nc1ccc(F)c(F)c1)c1ccc(F)c(C(F)(F)C(=O)N2CCCC(CO)C2)c1 (centres unmarked) [Example 49, 3-(1,1-difluoro-2-(3-(hydroxymethyl)piperidin-1-yl)-2-oxoethyl)-N-(3,4-difluorophenyl)-4-fluorobenzamide]	< 5 µM	> 30 µM
CC(=O)N1C[C@@H](C)N(C(=O)C(F)(F)c2cc(C(=O)Nc3ccc(F)c(C)c3)ccc2F)[C@@H](C)C1 [Example 294, 3-(2-((2S,6R)-4-acetyl-2,6-dimethylpiperazin-1-yl)-1,1-difluoro-2-oxoethyl)-4-fluoro-N-(4-fluoro-3-methylphenyl)benzamide]	< 5 µM	5 to 30 µM
Cc1cc(NC(=O)c2ccnc(C(F)(F)C(=O)N3CCc4nc(N)sc4C3)c2)ccc1F [Example 268, 2-(2-(2-amino-6,7-dihydrothiazolo[5,4-c]pyridin-5(4H)-yl)-1,1-difluoro-2-oxoethyl)-N-(4-fluoro-3-methylphenyl)isonicotinamide]	5 to 30 µM	> 30 µM
O=C(Nc1ccc(F)c(Cl)c1)c1ccc(F)c(C(F)(F)C(=O)N2[C@@H]3CC[C@H]2C[C@@H](O)C3)c1 [Example 170, N-(3-chloro-4-fluorophenyl)-3-(1,1-difluoro-2-((1R,3r,5S)-3-hydroxy-8-azabicyclo[3.2.1]octan-8-yl)-2-oxoethyl)-4-fluorobenzamide]	< 5 µM	5 to 30 µM
CC(C)n1cc(NC(=O)c2ccc(F)c(C(F)(F)C(=O)N3CCC(O)(CO)CC3)c2)cn1 [Example 186, 3-(1,1-difluoro-2-(4-hydroxy-4-(hydroxymethyl)piperidin-1-yl)-2-oxoethyl)-4-fluoro-N-(1-isopropyl-1H-pyrazol-4-yl)benzamide]	5 to 30 µM	> 30 µM
CO[C@H]1CC2CC[C@H](C1)N2C(=O)C(F)(F)c1cc(C(=O)Nc2ccc(F)c(C)c2)ccc1F [Example 277, 3-(1,1-difluoro-2-((1R,3s,5S)-3-methoxy-8-azabicyclo[3.2.1]octan-8-yl)-2-oxoethyl)-4-fluoro-N-(4-fluoro-3-methylphenyl)benzamide]	< 5 µM	5 to 30 µM
Cc1cc(NC(=O)c2ccc(F)c(C(F)(F)C(=O)N3[C@@H]4CC[C@H]3COC4)c2)ccc1F [Example 213, 3-(2-((1R,5S)-3-oxa-8-azabicyclo[3.2.1]octan-8-yl)-1,1-difluoro-2-oxoethyl)-4-fluoro-N-(4-fluoro-3-methylphenyl)benzamide]	< 5 µM	> 30 µM
O=C(Nc1ccc(F)c(Cl)c1)c1ccc(F)c(C(F)(F)C(=O)N2CCC(O)C(F)(F)C2)c1 (centres unmarked) [Example 169, N-(3-chloro-4-fluorophenyl)-3-(2-(3,3-difluoro-4-hydroxypiperidin-1-yl)-1,1-difluoro-2-oxoethyl)-4-fluorobenzamide]	< 5 µM	5 to 30 µM
Cc1cc(NC(=O)c2ccnc(C(F)(F)C(=O)N3C4CC[C@@H]3C[C@@H](C(=O)O)C4)c2)ccc1F [Example 244, (1R,3s,5S)-8-(2,2-difluoro-2-(4-((4-fluoro-3-methylphenyl)carbamoyl)pyridin-2-yl)acetyl)-8-azabicyclo[3.2.1]octane-3-carboxylic acid]	5 to 30 µM	5 to 30 µM
Cc1cc(NC(=O)c2ccc(F)c(C(F)(F)C(=O)N3CC=C(B(O)O)CC3)c2)ccc1F [Example 154, (1-(2,2-difluoro-2-(2-fluoro-5-((4-fluoro-3-methylphenyl)carbamoyl)phenyl)acetyl)-1,2,3,6-tetrahydropyridin-4-yl)boronic acid]	< 5 µM	5 to 30 µM
